Laboratory results: patent publication US8889638B2, “Stimulus-triggered prodrugs” (The Regents of the University of California, priority 2010, dated 2014)
One block for each compound: values may come before it.

Columns and labels:
[1] = target: T1, MMP-12 (catalytic domain, human recombinant) (Homo sapiens, UniProt P39900); assay: MMP-12 inhibition assay of boronic ester proinhibitors (IC50; activation with H2O2); assay type: biochemical; design: MMP-12 (catalytic domain, human, recombinant); purchased Enzo Life Sciences; settings: for inhibition of MMP-12 with no hydrogen peroxide present / inhibition at 0.05 µM: 50 nM; for inhibition at 0.05 µM: 1 h of activation, read-out: inhibition of MMP-12 after activation with 100 μM H2O2; for IC50 against MMP-12: proinhibitors without H2O2
Procedure: (§1) MMP-9 (catalytic domain, human, recombinant) and MMP-12 (catalytic domain, human, recombinant) were purchased from Enzo Life Sciences. The assays were carried out in 96-well plates using a Bio-Tek Flx 800 plate reader. IC50 values were obtained for proinhibitors B17 and B18 against MMP-9 and MMP-12. Serial dilutions of the compounds dissolved in DMSO were incubated at 37° C. for 30 minutes with 20 μL of the appropriate MMP (0.45 U/mL for MMP-9 and 0.35 U/mL for MMP-12) in MMP assay buffer (50 mM HEPES, 10 mM CaCl2, 0.10% Brij-35, pH 7.5), for a total volume of 99 pt. The reaction was initiated by the addition of 1 μL (400 μM) of the fluorescent substrate (Mca-Pro-Leu-Gly-Leu-Dpa-Ala-Arg-NH2 where Mca=(7-methoxycoumarin-4-yl)-acetyl and Dpa=N-3-(2,4-dinitrophenyl)-L-α-β-diaminopropionyl)) and kinetic activity was measured every minute for 20 min with excitation and emission wavelengths at 335 nm and 405 nm, respectively. Measurements were performed in duplicate. The percent inhibition was plotted versus the inhibitor concentration. A linear fit of the data for each experiment gives the IC50 value of the inhibitor where y=50%.
(§2) MMP activity in the presence of H2O2 was evaluated with both MMP-9 and MMP-12 with 1 h of activation at concentrations close to their IC50 values. Using the calculated rate constants for the protected ZBGs B19 and B20, it was determined that 1 h of activation time for each proinhibitor with 100 μM H2O2 will provide enough 1,2-HOPO-2 or PY-2 to inhibit the MMPs at 50%. For example, for proinhibitor B17 with MMP-9, if the rate=k[B17][H2O2] and k=3.9 M^−1s^−1, [B17]=10 μM, and [H2O2]=100 μM, the rate of conversion would be 3.9×10^−9 M/s. Therefore, activation for 1 h would release 14 μM 1,2-HOPO-2, or enough inhibitor to provide approximately 50% inhibition of MMP-9 (IC50 value for 1,2-HOPO-2 against MMP-9 is ˜6 μM).
(§3) In each well, 1 μL of proinhibitors B17 and B18 and the inhibitors 1,2-HOPO-2 and PY-2 in DMSO (1 mM for MMP-9 or 5 μM for MMP-12) were incubated for 1 h at 37° C. with 10 μL H2O2 (1 mM in HEPES buffer, pH 7.5) in MMP assay buffer for a total volume of 79 pt. […] After activation of the proinhibitors, 20 μL of the appropriate MMP (0.45 U/mL for MMP-9 and 0.35 U/mL for MMP-12) was added and incubated for an additional 30 min. The reaction was initiated by the addition of 1 pt (400 μM) of the fluorescent substrate and kinetic activity was measured every minute for 20 min with excitation and emission wavelengths at 335 nm and 405 nm, respectively. Enzyme activity with inhibitor was calculated with respect to the control experiment (no inhibitor present). Measurements were performed in duplicate in two independent experiments.

[2] = target: T2, MMP-9 (catalytic domain, human, recombinant) (Homo sapiens, UniProt P14780); assay: MMP-9 inhibition assay of boronic ester proinhibitors (IC50; activation with H2O2); assay type: biochemical; settings: for inhibition of MMP-9 with no hydrogen peroxide present / inhibition at 10 µM: 10 μM; for inhibition at 10 µM: 1 h of activation, read-out: inhibition of MMP-9 after activation with 100 μM H2O2; for IC50: proinhibitors without H2O2, read-out: IC50 against MMP-9
T2 construct: MMP-9 (catalytic domain, human, recombinant); purchased BIOMOL International
Procedure: as §1, §2, §3

[3] = Cleavage of sulfonate ester PZBGs and proMMPi by H2O2 (UV-Vis, rate constant, HPLC); assay type: physicochemical; settings: 50 μM in HEPES buffer, room temperature
Procedure: (§4) Absorption spectra of compounds were taken on a Perkin-Elmer Lambda 25 UV-Visible Spectrophotometer. To a 1.0 mL solution at 0.05 mM concentration of each compound in HEPES buffer (50 mM, pH 7.5) was added H2O2 (10 μL, 0.09M in HEPES) and absorption spectra were monitored over time at room temperature. Hydrolytic stability was measured by monitoring each sample in HEPES buffer over a 24 hour time period.
The pseudo-first order rate constant was calculated following literature procedure. To a 1.0 mL solution of compounds PZBG-1a, PZBG-1b, PZBG-1e, PZBG-5a, and PZBG-5b in HEPES buffer at 50 μM was added H2O2 to final concentrations of 150 μM, 250 μM, 500 μM, 750 μM, and 900 μM. Spectra were monitored over 15-30 min at room temperature with at least 50 spectra recorded at every concentration. The change in absorption at 298 nm for PZBG-1a and PZBG-1b were monitored, while the change in absorption at 288 nm was recorded for PZBG-1e, and 310 nm for PZBG-5a and PZBG-5b. The rate constant (kobs) was found from the linear slope of ln [(A−AZBG)/(Ao−AZBG)] vs. time where AZBG is the absorbance of a 50 μM sample of the ZBG or full-length inhibitor and AO is the initial absorbance of PZBG-1a, PZBG-1b, PZBG-1e, PZBG-5a, and PZBG-5b. The rate of conversion was determined from the slope of the line of kobs vs. [H2O2].
Analytical HPLC was performed on a HP Series 1050 system equipped with a Vydac® C18 reverse phase column (218 TP, 250×4.6 mm, 5 μm). […] Starting with 95% A and 5% B, an […] gradient was run for 15 min to a final solvent mixture of 5% A and 95% B, which was held for 5 min before ramping back down to 95% A and 5% B in 2 min and holding for an additional 4 min. Compounds ZBG-1a and PZBG-1a were prepared in HEPES buffer (50 mM, pH 7.5) at a concentration of 1 mM and retention times were determined. To evaluate cleavage by H2O2, a 1 mM solution of PZBG-1a in HEPES buffer was reacted with a 20-fold excess of H2O2 before analyzing under identical HPLC conditions as before.

[4] = Hydrolytic stability of sulfonate esters in HEPES buffer; assay type: physicochemical
Procedure: as §4

[5] = target: T1, MMP-12 (catalytic domain, human recombinant); assay: MMP-12 fluorescence-based inhibition assay with and without H2O2 (sulfonate ester proMMPi); assay type: biochemical; design: MMP-12 (catalytic domain, human recombinant); purchased Enzo Life Sciences; settings: 50 nM; for inhibition at 0.05 µM: 30 min of incubation
Procedure: MMP-12 (catalytic domain, human recombinant) was purchased from Enzo Life Sciences. The assays were carried out in a 96-well plate using a Bio-Tex Flx 800 plate reader. The activity of MMP-12 was evaluated after a 30 min incubation in the presence of H2O2 and proMMPi. The concentration of proMMPi used was selected to be close to the IC50 value of the parent full-length inhibitors, 1,2-HOPO-2 and PY-2[38]. In each well, 1 μL of proinhibitors PZBG-5a, PZGB-5b, and PZBG-6a and the inhibitors 1,2-HOPO-2 and PY-2 in DMSO (5 μM) were incubated for 30 min at 37° C. with 20 μL of MMP-12 (0.35 U/mL), 10 μL H2O2 (1 mM in HEPES buffer, pH 7.5), and MMP assay buffer (50 mM HEPES, 10 mM CaCl2, 0.10% Brij-35, pH 7.5) for a total volume of 99 μL. […] The reaction was initiated by the addition of 1 μL (400 μM) of the fluorescent substrate (Mca-Pro-Leu-Gly-Leu-Dpa-Ala-Arg-NH2 where Mca=(7-methoxycoumarin-4-yl)-acetyl and Dpa=N-3-(2,4-dinitrophenyl)-L-α-β-diaminopropionyl)) after the 30 minute incubation period and kinetic activity was measured every minute for 20 minutes with excitation and emission wavelengths at 335 nm and 405 nm, respectively. Enzyme activity with inhibitor was calculated with respect to the control experiment—no inhibitor present. Measurements were performed in duplicate in two independent experiments.

[6] = read-out: inhibition of MMP-12 after treatment with 100 μM H2O2
[7] = read-out: inhibition of MMP-12 before treatment with H2O2

T2 sequence (P14780 107-444 limits assumed): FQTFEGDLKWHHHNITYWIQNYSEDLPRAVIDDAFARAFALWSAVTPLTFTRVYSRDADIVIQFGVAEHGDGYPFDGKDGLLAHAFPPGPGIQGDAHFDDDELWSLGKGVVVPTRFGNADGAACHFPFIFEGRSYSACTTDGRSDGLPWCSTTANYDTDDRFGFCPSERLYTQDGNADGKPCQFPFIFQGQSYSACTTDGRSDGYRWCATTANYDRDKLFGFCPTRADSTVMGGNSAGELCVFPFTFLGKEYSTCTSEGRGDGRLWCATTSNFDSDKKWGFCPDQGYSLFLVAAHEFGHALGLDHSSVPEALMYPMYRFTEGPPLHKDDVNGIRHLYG
T1 sequence (P39900 106-263 limits assumed): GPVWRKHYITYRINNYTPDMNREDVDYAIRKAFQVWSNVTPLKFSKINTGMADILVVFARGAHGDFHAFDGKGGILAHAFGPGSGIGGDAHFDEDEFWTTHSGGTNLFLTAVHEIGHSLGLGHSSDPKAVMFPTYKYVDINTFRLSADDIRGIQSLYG

cleavage in buffer ([4]; in 6 h): ~50%
Structure (SMILES): O=c1ccccn1OS(=O)(=O)c1ccccc1 [PZBG-1a, 2-Oxopyridin-1(2H)-yl benzenesulfonate]
pseudo-first order rate constant with an excess of H2O2 [3]: 0.7 M⁻¹ s⁻¹

cleavage in buffer ([4]; in 24 h): ~30%
Structure (SMILES): Cc1ccc(S(=O)(=O)On2ccccc2=O)cc1 [PZBG-1b, 2-Oxopyridin-1(2H)-yl-4-methylbenzenesulfonate]
pseudo-first order rate constant with an excess of H2O2 [3]: 0.3 M⁻¹ s⁻¹

inhibition at 0.05 µM [5, 6]: ~30%
inhibition at 0.05 µM [5, 7]: ~20%
hydrolysis in buffer alone ([4]; after 9 h): ~50%
Structure (SMILES): O=C(NCc1ccc(-c2ccccc2)cc1)c1cccc(=O)n1OS(=O)(=O)c1ccccc1 [PZBG-5a, 6-(([1,1′-Biphenyl]-4-ylmethyl)carbamoyl)-2-Oxopyridin-1(2H)-yl benzenesulfonate]
pseudo-first order rate constant with an excess of H2O2 (full-length proMMPi) [3]: 0.3 M⁻¹ s⁻¹

inhibition at 0.05 µM [5, 6]: ~50%
inhibition at 0.05 µM [5, 7]: ~30%
hydrolysis in buffer alone ([4]; after 3 h): ~50%
Structure (SMILES): O=C(O)c1ccc(S(=O)(=O)On2c(C(=O)NCc3ccc(-c4ccccc4)cc3)cccc2=O)cc1 [PZBG-5b, 4-(((6-(([1,1′-Biphenyl]-4-ylmethyl)carbamoyl)-2-Oxopyridin-1(2H)yl)oxy)sulfonyl)benzoic acid]
pseudo-first order rate constant with an excess of H2O2 (full-length proMMPi) [3]: 1.1 M⁻¹ s⁻¹

The next lines start with the compound.

Structure (SMILES): CC1(C)OB(c2ccc(COn3c(C(=O)NCc4ccc(-c5ccccc5)cc4)cccc3=O)cc2)OC1(C)C [Compound B17, N-([1,1′-biphenyl]-4-ylmethyl)-6-oxo-1-((4-(4,4,5,5-tetramethyl-1,3,2-dioxaborolan-2-yl)benzyl)oxy)-1,6-dihydropyridine-2-carboxamide]
inhibition of MMP-12 with no hydrogen peroxide present [1]: little inhibition
inhibition at 0.05 µM [1]: 50%
IC50 against MMP-12 [1]: micromolar range
inhibition of MMP-9 with no hydrogen peroxide present [2]: little inhibition
inhibition at 10 µM [2]: 50%
IC50 [2]: > 1000 µM

Structure (SMILES): CC1(C)OB(c2ccc(COc3c(C(=O)NCc4ccc(-c5ccccc5)cc4)occc3=O)cc2)OC1(C)C [Compound B18, N-([1,1′-biphenyl]-4-ylmethyl)-4-oxo-3-((4-(4,4,5,5-tetramethyl-1,3,2-dioxaborolan-2-yl)benzyl)oxy)-4H-pyran-2-carboxamide]
inhibition of MMP-12 with no hydrogen peroxide present [1]: little inhibition
inhibition at 0.05 µM [1]: 50%
IC50 against MMP-12 [1]: micromolar range
inhibition of MMP-9 with no hydrogen peroxide present [2]: little inhibition
inhibition at 10 µM [2]: 50%
IC50 [2]: > 1000 µM

Structure (SMILES): O=C(NCc1ccc(-c2ccccc2)cc1)c1occc(=O)c1OS(=O)(=O)c1ccccc1 [PZBG-6a, 2-(([1,1′-Biphenyl]-4-ylmethyl)carbamoyl)-4-oxo-4H-pyran-3-yl benzenesulfonate]
change in inhibitory activity against MMP-12 upon exposure to H2O2 ([5]; negative control): no significant change in inhibitory activity
